Experiments:
Format in all cases: biochemical
Conditions in all cases: HotSpot functional assay, isolated kinase enzyme, 33P-ATP
[1] = molecular target: T1, IRAK1 (Homo sapiens, UniProt P51617); assay: RBC HotSpot Kinase Assay, IRAK1
T1 construct: purchased RBC (Reaction Biology) HotSpot assay
From the text: (§1) This assay uses the isolated kinase enzyme. This assay is very useful for determining competition of the inhibitor for ATP and/or substrates and for measuring the kinetics of enzyme inhibition. […] Unlike kinase binding assays that measure competition for ATP, the HotSpot Kinase Assay is a functional assay that measures catalytic activity; as such it measures relative functional potency regardless of the mechanism of enzyme inhibition. This assay uses the form of the various enzymes that are easiest to express, which may not necessarily be the form of the enzyme that exist in the cell. (Sometimes the carboxy terminus has been truncated to aid in expression, or, if it is a receptor kinase, the enzyme itself is isolated from the other parts of the receptor that are involved in regulating kinase activity.)
(§2) The reagent used was as follows: Base Reaction buffer; 20 mM Hepes (pH 7.5), 10 mM MgCl2, 1 mM EGTA, 0.01% Brij35, 0.02 mg/mi BSA, 0.1 mM Na3VO4, 2 mM DTT, 1% DMSO. Required cofactors were added individually to each kinase reaction.
(§3) The reaction procedure was as follows: • 1) Substrates were prepared in freshly prepared Reaction Buffer. • 2) Any required cofactors were delivered to the substrate solution above. • 3) Kinase was delivered into the substrate solution and gently mixed. • 4) Compounds were delivered in 100% DMSO into the kinase reaction mixture by Acoustic technology (Echo550, nanoliter range), followed by incubation for 20 min at room temp. • 5) ^33P-ATP was delivered into the reaction mixture to initiate the reaction. • 6) The mixture was incubated for 2 hours at room temperature. • 7) Kinase activity was detected by P81 filter-binding method.

[2] = molecular target: T2, IRAK4 (Homo sapiens, UniProt Q9NWZ3); assay: RBC HotSpot Kinase Assay, IRAK4; design: purchased RBC (Reaction Biology) HotSpot assay
T2 sequence (Q9NWZ3 1-460): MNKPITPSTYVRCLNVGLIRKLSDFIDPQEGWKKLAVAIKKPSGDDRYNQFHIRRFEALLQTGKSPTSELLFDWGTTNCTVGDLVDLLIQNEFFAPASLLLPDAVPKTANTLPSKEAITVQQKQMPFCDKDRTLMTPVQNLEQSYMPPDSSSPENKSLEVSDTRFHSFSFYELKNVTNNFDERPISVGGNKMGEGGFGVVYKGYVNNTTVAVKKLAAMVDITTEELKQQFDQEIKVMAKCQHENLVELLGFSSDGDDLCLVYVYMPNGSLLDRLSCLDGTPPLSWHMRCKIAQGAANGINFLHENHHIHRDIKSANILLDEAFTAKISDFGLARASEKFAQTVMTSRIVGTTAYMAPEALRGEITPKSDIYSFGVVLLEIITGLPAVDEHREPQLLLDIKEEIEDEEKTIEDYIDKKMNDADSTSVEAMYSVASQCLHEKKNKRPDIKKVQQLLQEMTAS
From the text: as §1, §2, §3

[3] = molecular target: T3, FLT3 (Homo sapiens, UniProt P36888); assay: RBC HotSpot Kinase Assay, FLT3; design: purchased RBC (Reaction Biology) HotSpot assay
T3 sequence (P36888 27-993): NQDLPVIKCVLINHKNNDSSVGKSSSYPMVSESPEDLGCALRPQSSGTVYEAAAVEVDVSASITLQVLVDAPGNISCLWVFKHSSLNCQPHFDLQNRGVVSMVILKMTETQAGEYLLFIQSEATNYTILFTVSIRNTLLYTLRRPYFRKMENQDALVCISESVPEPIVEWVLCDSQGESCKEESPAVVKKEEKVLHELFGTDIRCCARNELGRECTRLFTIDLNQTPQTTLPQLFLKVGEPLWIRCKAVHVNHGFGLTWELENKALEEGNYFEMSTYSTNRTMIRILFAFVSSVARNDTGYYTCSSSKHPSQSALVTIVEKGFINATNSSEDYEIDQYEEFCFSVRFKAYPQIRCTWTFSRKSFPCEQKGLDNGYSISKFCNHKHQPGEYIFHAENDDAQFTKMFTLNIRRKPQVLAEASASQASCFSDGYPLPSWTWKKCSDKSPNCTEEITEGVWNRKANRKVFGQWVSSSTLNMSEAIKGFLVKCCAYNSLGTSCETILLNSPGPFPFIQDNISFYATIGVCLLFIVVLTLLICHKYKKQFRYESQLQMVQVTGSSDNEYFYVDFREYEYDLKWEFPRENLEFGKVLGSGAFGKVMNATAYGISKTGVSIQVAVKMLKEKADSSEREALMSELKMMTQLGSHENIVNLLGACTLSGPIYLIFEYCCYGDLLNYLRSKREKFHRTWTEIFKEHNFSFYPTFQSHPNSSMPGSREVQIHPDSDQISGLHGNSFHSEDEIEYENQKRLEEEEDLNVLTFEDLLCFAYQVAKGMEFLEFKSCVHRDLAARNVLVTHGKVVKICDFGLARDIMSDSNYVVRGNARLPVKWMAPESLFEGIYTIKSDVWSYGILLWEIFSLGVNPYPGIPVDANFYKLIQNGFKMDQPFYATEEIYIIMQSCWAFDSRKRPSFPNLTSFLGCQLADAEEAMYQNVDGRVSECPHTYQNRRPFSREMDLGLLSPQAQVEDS
From the text: as §1, §2, §3

T1 sequence (P51617 whole entry): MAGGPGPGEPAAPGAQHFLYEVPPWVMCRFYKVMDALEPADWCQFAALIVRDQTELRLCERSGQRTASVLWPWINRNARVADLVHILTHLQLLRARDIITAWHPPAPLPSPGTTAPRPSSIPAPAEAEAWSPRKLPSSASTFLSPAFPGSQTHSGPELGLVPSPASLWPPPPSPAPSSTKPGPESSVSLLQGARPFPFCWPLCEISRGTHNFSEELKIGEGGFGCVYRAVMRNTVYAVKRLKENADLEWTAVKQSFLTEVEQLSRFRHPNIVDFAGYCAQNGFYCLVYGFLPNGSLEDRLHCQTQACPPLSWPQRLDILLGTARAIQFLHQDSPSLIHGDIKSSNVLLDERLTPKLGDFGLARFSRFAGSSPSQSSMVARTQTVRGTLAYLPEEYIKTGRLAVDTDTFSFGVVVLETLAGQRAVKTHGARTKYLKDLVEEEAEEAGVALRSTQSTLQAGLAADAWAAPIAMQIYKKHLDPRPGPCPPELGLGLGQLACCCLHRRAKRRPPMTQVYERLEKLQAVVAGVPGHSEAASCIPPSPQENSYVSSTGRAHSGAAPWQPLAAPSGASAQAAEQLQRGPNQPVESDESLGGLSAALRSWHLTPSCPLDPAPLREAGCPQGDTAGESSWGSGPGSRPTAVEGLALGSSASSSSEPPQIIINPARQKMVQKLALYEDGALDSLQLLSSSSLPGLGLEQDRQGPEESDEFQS

Row | Compound | IC50 [1] | IC50 [2] | IC50 [3]
1 | COc1ccc(-c2cnc3cc(OC)c(C4CC4)nn23)nc1N[C@H]1CNCC[C@@H]1F [Compound 35a, 6-(6-cyclopropyl-7-methoxyimidazo[1,2-b]pyridazin-3-yl)-N-((3S,4S)-4-fluoropiperidin-3-yl)-3-methoxypyridin-2-amine] | > 10 µM | 0.055 µM | < 0.0005 µM
2 | COc1ccc(N[C@H]2CNC[C@@H]2F)nc1-c1cnc2cc(OC)c(C3CC3)nn12 [Compound 36a, 6-(6-cyclopropyl-7-methoxyimidazo[1,2-b]pyridazin-3-yl)-N-((3S,4S)-4-fluoropyrrolidin-3-yl)-5-methoxypyridin-2-amine] | > 10 µM | 0.341 µM | 0.105 µM
3 | COc1ccc(N[C@H]2CNCC[C@@H]2F)nc1-c1cnc2cc(OC)c(C3CC3)nn12 [Compound 37a, 6-(6-cyclopropyl-7-methoxyimidazo[1,2-b]pyridazin-3-yl)-N-((3S,4S)-4-fluoropiperidin-3-yl)-5-methoxypyridin-2-amine] | > 10 µM | 0.247 µM | 0.04 µM
4 | COc1cc2ncc(-c3cc(C)cc(N[C@H]4CNC[C@@H]4F)n3)n2nc1C1CC1 [Compound 50a, 6-(6-cyclopropyl-7-methoxyimidazo[1,2-b]pyridazin-3-yl)-N-((3S,4S)-4-fluoropyrrolidin-3-yl)-4-methylpyridin-2-amine] | 8.27 µM | 5.24 µM | 0.002 µM
5 | COc1cc2ncc(-c3cc(C)cc(N[C@@H]4CCCNC4)n3)n2nc1C1CC1 [Compound 51a, (R)-6-(6-cyclopropyl-7-methoxyimidazo[1,2-b]pyridazin-3-yl)-4-methyl-N-(piperidin-3-yl)pyridin-2-amine] | > 10 µM | 4.92 µM | 0.002 µM
6 | COc1cc2ncc(-c3cc(C)cc(N[C@H]4CNCC[C@@H]4F)n3)n2nc1C1CC1 [Compound 52a, 6-(6-cyclopropyl-7-methoxyimidazo[1,2-b]pyridazin-3-yl)-N-((3S,4S)-4-fluoropiperidin-3-yl)-4-methylpyridin-2-amine] | > 10 µM | 1.74 µM | 0.001 µM
7 | COc1cc2ncc(-c3cc(-c4ccccc4)cc(N[C@H]4CNCC[C@@H]4F)n3)n2nc1C1CC1 [Compound 53a, 6-(6-cyclopropyl-7-methoxyimidazo[1,2-b]pyridazin-3-yl)-N-((3S,4S)-4-fluoropiperidin-3-yl)-4-phenylpyridin-2-amine] | 4.59 µM | 3.19 µM | 0.299 µM
8 | COc1cc2ncc(-c3cc(-c4ccccc4)cc(N[C@H]4CNC[C@@H]4F)n3)n2nc1C1CC1 [Compound 54a, 6-(6-cyclopropyl-7-methoxyimidazo[1,2-b]pyridazin-3-yl)-N-((3S,4S)-4-fluoropyrrolidin-3-yl)-4-phenylpyridin-2-amine] | 9.51 µM | 6.53 µM | 0.949 µM
9 | COc1cc2ncc(-c3cc(-c4ccccc4)cc(N[C@@H]4CCCNC4)n3)n2nc1C1CC1 [Compound 55a, (R)-6-(6-cyclopropyl-7-methoxyimidazo[1,2-b]pyridazin-3-yl)-4-phenyl-N-(piperidin-3-yl)pyridin-2-amine] | 4.01 µM | 4.11 µM | 0.741 µM
10 | COc1cc2ncc(-c3cc(C4CC4)cc(N[C@H]4CNCC[C@@H]4F)n3)n2nc1C1CC1 [Compound 56a, 4-cyclopropyl-6-(6-cyclopropyl-7-methoxyimidazo[1,2-b]pyridazin-3-yl)-N-((3S,4S)-4-fluoropiperidin-3-yl)pyridin-2-amine] | > 10 µM | 9 µM | 0.002 µM
11 | COc1cc2ncc(-c3cc(C4CC4)cc(N[C@H]4CNC[C@@H]4F)n3)n2nc1C1CC1 [Compound 57a, 4-cyclopropyl-6-(6-cyclopropyl-7-methoxyimidazo[1,2-b]pyridazin-3-yl)-N-((3S,4S)-4-fluoropyrrolidin-3-yl)pyridin-2-amine] | > 10 µM | > 10 µM | 0.019 µM

More lines, now with the values ahead:

Row | IC50 [1] | IC50 [2] | IC50 [3] | Compound
12 | > 10 µM | > 10 µM | 0.005 µM | COc1cc2ncc(-c3cc(C4CC4)cc(N[C@@H]4CCCNC4)n3)n2nc1C1CC1 [Compound 58a, (R)-4-cyclopropyl-6-(6-cyclopropyl-7-methoxyimidazo[1,2-b]pyridazin-3-yl)-N-(piperidin-3-yl)pyridin-2-amine]
13 | > 10 µM | > 10 µM | 0.096 µM | COc1cc2ncc(-c3cc(Oc4ccccc4)cc(N[C@@H]4CCCNC4)n3)n2nc1C1CC1 [Compound 59a, (R)-6-(6-cyclopropyl-7-methoxyimidazo[1,2-b]pyridazin-3-yl)-4-phenoxy-N-(piperidin-3-yl)pyridin-2-amine]
14 | > 10 µM | > 10 µM | 0.277 µM | COc1cc2ncc(-c3cc(Oc4ccccc4)cc(N[C@H]4CNC[C@@H]4F)n3)n2nc1C1CC1 [Compound 60a, 6-(6-cyclopropyl-7-methoxyimidazo[1,2-b]pyridazin-3-yl)-N-((3S,4S)-4-fluoropyrrolidin-3-yl)-4-phenoxypyridin-2-amine]
15 | > 10 µM | > 10 µM | 0.094 µM | COc1cc2ncc(-c3cc(Oc4ccccc4)cc(N[C@H]4CNCC[C@@H]4F)n3)n2nc1C1CC1 [Compound 61a, 6-(6-cyclopropyl-7-methoxyimidazo[1,2-b]pyridazin-3-yl)-N-((3S,4S)-4-fluoropiperidin-3-yl)-4-phenoxypyridin-2-amine]
16 | > 10 µM | > 10 µM | 1.42 µM | COc1cc2ncc(-c3nc(N[C@@H]4CCCNC4)c(C)cc3C)n2nc1C1CC1 [Compound 62a]
17 | > 10 µM | > 10 µM | 0.377 µM | COc1cc2ncc(-c3nc(N[C@H]4CNC[C@@H]4F)c(C)cc3C)n2nc1C1CC1 [Compound 63a, 6-(6-cyclopropyl-7-methoxyimidazo[1,2-b]pyridazin-3-yl)-N-((3S,4S)-4-fluoropyrrolidin-3-yl)-3,5-dimethylpyridin-2-amine]
18 | > 10 µM | > 10 µM | 0.821 µM | COc1cc2ncc(-c3nc(N[C@H]4CNCC[C@@H]4F)c(C)cc3C)n2nc1C1CC1 [Compound 64a, 6-(6-cyclopropyl-7-methoxyimidazo[1,2-b]pyridazin-3-yl)-N-((3S,4S)-4-fluoropiperidin-3-yl)-3,5-dimethylpyridin-2-amine]
19 | 0.021 µM | 0.002 µM | < 0.0005 µM | COc1cc2ncc(-c3nc(N[C@H]4CNC[C@@H]4F)c(F)cc3F)n2nc1C12CC(C1)C2 [Compound 66a, 6-(6-(bicyclo[1.1.1]pentan-1-yl)-7-methoxyimidazo[1,2-b]pyridazin-3-yl)-3,5-difluoro-N-((3S,4S)-4-fluoropyrrolidin-3-yl)pyridin-2-amine]
